# Experimental data: patent US11498923B2 (Merck Sharp & Dohme Corp., priority 2017, dated 2022)
# Target: T1, human A2a receptor (Homo sapiens, UniProt P29274)
# T1 construct: purchased Perkin-Elmer RBHA2AM400UA; host or cells: HEK293 cells, used as a membrane preparation
# Test: A2a receptor competition binding assay (Scintillation Proximity)
# Details: membranes from HEK293 cells expressing human A2a receptor; 0.5 nM tritiated ligand; Cheng-Prusoff; read-out: A2a Ki
# Method in brief: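 HEK293 membranes bearing the human receptor, pretreated with adenosine deaminase, competed against 0.5 nM tritiated pyrazolotriazolopyrimidine antagonist with compound at 3000–0.15 nM final in DPBS plus 10 mM MgCl2. SPA bead readout after 1 h at room temperature; Ki from EC50 via Cheng-Prusoff.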
# T1 sequence (P29274 whole entry): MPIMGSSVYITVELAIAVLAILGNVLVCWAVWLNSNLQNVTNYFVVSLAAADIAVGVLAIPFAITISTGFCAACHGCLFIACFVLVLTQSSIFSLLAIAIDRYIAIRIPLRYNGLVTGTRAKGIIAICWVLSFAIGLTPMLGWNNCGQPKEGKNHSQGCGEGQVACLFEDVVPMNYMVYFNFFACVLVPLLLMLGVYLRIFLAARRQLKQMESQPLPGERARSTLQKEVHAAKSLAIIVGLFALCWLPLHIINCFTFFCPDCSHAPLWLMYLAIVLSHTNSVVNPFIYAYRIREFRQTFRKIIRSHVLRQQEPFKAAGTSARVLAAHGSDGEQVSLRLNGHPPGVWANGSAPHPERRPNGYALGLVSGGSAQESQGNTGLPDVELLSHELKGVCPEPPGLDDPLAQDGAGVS
row,Structure (SMILES),Ki [nM]
1,"Cc1ccc(CN2CCC(Cc3cn4c(N)nc5c(F)cccc5c4n3)CC2)cc1 [Ex-312, 7-fluoro-2-((1-(4-methylbenzyl)piperi-din-4-yl)methyl)-imidazo-[1,2-c]-quinazolin-5-amine]",48
2,"COc1cccc2c1nc(N)n1cc(C(=O)N3CCOC[C@H]3C)nc21 [Ex-183, (R)-(5-amino-7-methoxyimidazo[1,2-c]quinazolin-2-yl)(3-methylmorpholino) methanone]",126
3,"Nc1nc2ccccc2c2nc(Cc3ccccc3CN3CCOCC3)cn12 [Ex-25, 2-(2-(morpholinomethyl)benzyl)imidazo[1,2-c]quinazolin-5-amine]",10.2
4,"COc1cccc2c1nc(N)n1cc(CNCc3ccccc3)nc21 [Ex-143, 2-((benzylamino)-methyl)-7-methoxy-imidazo[1,2-c]-quinazolin-5-amine]",4
5,"COc1cccc2c1nc(N)n1cc(Cc3ccc(N4CCOCC4)cc3)nc21 [Ex-41, 7-methoxy-2-(4-morpholinobenzyl)imidazo[1,2-c]quinazolin-5-amine]",15
6,"Nc1nc2c(F)cccc2c2nc(CN3CCOCC3)cn12 [Ex-115, 7-fluoro-2-(morpholinomethyl) imidazo[1,2-c] quinazolin-5-amine]",380
7,"Nc1nc2c(F)cccc2c2nc(C(=O)N3CCC4(CCNC4)C3)cn12 (stereo not drawn) [Ex-272, (5-amino-7-fluoroimidazo[1,2-c]quinazolin-2-yl)(2,7-diazaspiro[4.4]nonan-2-yl)methanone]",380
8,"COc1ccc(C(=O)N2CCC(Cc3cn4c(N)nc5c(F)cccc5c4n3)CC2)nc1 [Ex-327, (4-((5-amino-7-fluoroimidazo[1,2-c]quinazolin-2-yl)-methyl)piperidin-1-yl)(5-methoxypyridin-2-yl)methanone]",21
9,"COc1cccc2c1nc(N)n1cc(C(=O)N3CC[C@H](OC)C3)nc21 [Ex-212, (S)-(5-amino-7-methoxyimidazo[1,2-c]quinazolin-2-yl)(3-methoxypyrrolidin-1-yl)methanone]",5.5
10,"Nc1nc2c(F)cccc2c2nc(Cc3ccc(C(=O)Nc4ccccn4)cc3)cn12 [Ex-84, 4-((5-amino-7-fluoroimidazo[1,2-c]quinazolin-2-yl)methyl)-N-(pyridin-2-yl)benzamide]",3.8
11,"COc1cccc2c1nc(N)n1cc(CN3CCc4ccc(-c5ccc(F)c(F)c5)cc4C3)nc21 [Ex-135, 2-((7-(3,4-difluorophenyl)-3,4-dihydroisoquinolin-2(1H)-yl)methyl)-7-methoxyimidazo[1,2-c]quinazolin-5-amine]",10.4
12,"COc1cccc2c1nc(N)n1cc(C(=O)N3C[C@@H](C)O[C@H](C)C3)nc21 [Ex-239, (5-amino-7-methoxyimidazo[1,2-c]quinazolin-2-yl)((2R,6R)-2,6-dimethylmorpholino) methanone]",130
13,"CC(=O)Nc1ccc2c(c1)CN(C(=O)c1cn3c(N)nc4c(F)cccc4c3n1)CC2 [Ex-244, N-(2-(5-amino-7-fluoroimidazo[1,2-c]quinazoline-2-carbonyl)-1,2,3,4-tetrahydroisoquinolin-7-yl)acetamide]",49.6
14,"Nc1nc2c(F)ccc(Br)c2c2nc(Cc3ccccc3)cn12 [Ex-12, 2-benzyl-10-bromo-7-fluoroimidazo[1,2-c]quinazolin-5-amine]",7.7
15,"CC(C)(C)OC(=O)N1CCC2(CCN(C(=O)c3cn4c(N)nc5c(F)cccc5c4n3)CC2)C1 [Ex-262, tert-butyl 8-(5-amino-7-fluoroimidazo[1,2-c]quinazoline-2-carbonyl)-2,8-diazaspiro[4.5]decane-2-carboxylate]",53
16,"COc1cccc2c1nc(N)n1cc(CNCc3cccnc3)nc21 [Ex-145, 7-methoxy-2-(((pyridin-3-ylmethyl)amino)methyl)imidazo [1,2-c]quinazolin-5-amine]",28
17,"CC(=O)Nc1ccc2c(c1)CCN(Cc1cn3c(N)nc4c(F)cccc4c3n1)C2 [Ex-128, N-(2-((5-amino-7-fluoroimidazo[1,2-c]quinazolin-2-yl)methyl)-1,2,3,4-tetrahydroisoquinolin-6-yl)acetamide]",97
18,"Nc1nc2c(F)cccc2c2nc(Cc3ccc(-c4ccc(F)cn4)cc3)cn12 [Ex-76, 7-fluoro-2-(4-(5-fluoropyridin-yl)benzyl)imidazo[1,2-c]quinazolin-5-amine]",10
19,"COc1cccc2c1nc(N)n1cc(Cc3cccnc3N3CCC(c4ccccc4)CC3)nc21 [Ex-62, 7-methoxy-2-((2-(4-phenylpiperidin-1-yl)pyridin-3-yl)methyl)imidazo[1,2-c]quinazolin-5-amine]",2.2
20,"CC(C)(C)OC(=O)N1CCN(c2ccccc2CNC(=O)c2cn3c(N)nc4c(F)cccc4c3n2)CC1 [Ex-256, tert-butyl 4-(2-((5-amino-7-fluoroimidazo[1,2-c]quinazoline-2-carboxamido)methyl)phenyl) piperazine-1-carboxylate]",4.5
21,"CC(=O)N1CCC2(CCN(C(=O)c3cn4c(N)nc5c(F)cccc5c4n3)C2)C1 (stereo not drawn) [Ex-274, 1-(7-(5-amino-7-fluoroimidazo[1,2-c]quinazoline-2-carbonyl)-2,7-diazaspiro[4.4]nonan-2-yl)ethan-1-one]",32
22,"COc1cccc2c1nc(N)n1cc(C(=O)N3CCCC(C)(C)C3)nc21 [Ex-189, (5-amino-7-methoxyimidazo[1,2-c]quinazolin-2-yl)(3,3-dimethylpiperidin-1-yl)methanone]",4.5
23,"Nc1nc2c(F)cccc2c2nc(C(=O)NCc3cccc4cccnc34)cn12 [Ex-163, 5-amino-7-fluoro-N-(quinolin-8-ylmethyl)imidazo[1,2-c]quinazoline-2-carboxamide]",12.8
24,"COc1cccc2c1nc(N)n1cc(C(=O)c3ccccc3)nc21 [Ex-103, (5-amino-7-methoxyimidazo[1,2-c]quinazolin-2-yl)(phenyl)methanone]",26.4
25,"COc1cccc2c1nc(N)n1cc(C(=O)N3CCCC(=O)CC3)nc21 [Ex-179, 1-(5-amino-7-methoxyimidazo[1,2-c]quinazoline-2-carbonyl)azepan-4-one]",31
26,"COc1cccc2c1nc(N)n1cc(C(=O)N3CCC(F)(F)CC3)nc21 [Ex-168, (5-amino-7-methoxyimidazo[1,2-c]quinazolin-2-yl)(4,4-difluoropiperidin-1-yl)methanone]",81
27,"Nc1nc2c(F)cccc2c2nc(Cn3cc(-c4ccc(-c5cccnc5)cc4)nn3)cn12 [Ex-98, 7-fluoro-2-((4-(4-(pyridin-3-yl)phenyl)-1H-1,2,3-triazol-1-yl)methyl)imidazo[1,2-c)quinazolin-5-amine]",6.7
28,"COCCOc1ccc(N2CCN(c3ccccc3CNC(=O)c3cn4c(N)nc5c(F)cccc5c4n3)CC2)cc1 [Ex-253, 5-amino-7-fluoro-N-(2-(4-(4-(2-methoxyethoxy)phenyl)piperazin-1-yl)benzyl)imidazo[1,2-c]quinazoline-2-carboxamide]",3.7
29,"Nc1nc2c(F)cccc2c2nc(C(=O)NCc3cccc(CN4CCOCC4)c3)cn12 [Ex-258, 5-amino-7-fluoro-N-(3-(morpholinomethyl)benzyl) imidazo[1,2-c]quinazoline-2-carboxamide]",2.3
30,"COc1cccc2c1nc(N)n1cc(C(=O)N3C[C@@H](F)[C@H](F)C3)nc21 [Ex-175, (5-amino-7-methoxyimidazo[1,2-c]quinazolin-2-yl)((3R,4R)-3,4-difluoropyrrolidin-1-yl)methanone]",21
